Reference: ChEMBL document CHEMBL1201862, “PubChem BioAssay data set” (2004)
Activity calls are given as the source filed them.

Experiments:
[1] = target: T1, Carboxy-terminal domain RNA polymerase II polypeptide A small phosphatase 1 (Homo sapiens, UniProt Q9GZU7); assay: CTDSP1 inhibitors, concentration-response, biochemical, absorbance readout, ultra-high-throughput screen actives (AID 540297); format: functional
T1 sequence (Q9GZU7 whole entry): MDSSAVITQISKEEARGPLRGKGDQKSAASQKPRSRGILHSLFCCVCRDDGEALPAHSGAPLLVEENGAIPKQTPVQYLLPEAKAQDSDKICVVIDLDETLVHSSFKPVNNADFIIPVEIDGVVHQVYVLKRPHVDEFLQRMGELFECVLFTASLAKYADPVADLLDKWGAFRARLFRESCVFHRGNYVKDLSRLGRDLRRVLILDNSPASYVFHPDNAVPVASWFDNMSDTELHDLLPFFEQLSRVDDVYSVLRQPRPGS

[2] = target: T2, Long-chain-fatty-acid--AMP ligase FadD28 (Mycobacterium tuberculosis, UniProt P9WQ59); assay: Fluorescence polarization aasay to screen for inhibitors that compete for the binding of FadD28 to a bisubstrate Measured in Biochemical System Using Plate Reader - 2147-01_Inhibitor_Dose_CherryPick_Activity.; format: functional, Mycobacterium tuberculosis H37Rv
T2 sequence (P9WQ59 whole entry): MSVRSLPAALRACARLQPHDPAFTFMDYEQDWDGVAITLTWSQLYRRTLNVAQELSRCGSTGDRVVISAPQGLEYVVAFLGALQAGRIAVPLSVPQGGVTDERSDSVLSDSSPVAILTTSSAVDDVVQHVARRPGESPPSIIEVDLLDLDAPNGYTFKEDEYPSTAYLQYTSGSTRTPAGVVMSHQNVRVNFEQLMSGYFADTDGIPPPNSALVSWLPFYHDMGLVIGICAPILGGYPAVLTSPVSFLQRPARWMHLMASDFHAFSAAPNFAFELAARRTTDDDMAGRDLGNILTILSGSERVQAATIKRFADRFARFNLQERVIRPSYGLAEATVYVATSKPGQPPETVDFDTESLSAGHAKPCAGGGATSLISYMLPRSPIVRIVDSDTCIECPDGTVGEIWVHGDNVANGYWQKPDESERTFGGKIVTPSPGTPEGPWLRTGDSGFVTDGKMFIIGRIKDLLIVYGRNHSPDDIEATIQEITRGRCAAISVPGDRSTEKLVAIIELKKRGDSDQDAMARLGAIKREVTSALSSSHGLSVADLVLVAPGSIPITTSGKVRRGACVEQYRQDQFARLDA

Cytochrome P450 1A2 = target: T3, Cytochrome P450 1A2 (Homo sapiens, UniProt P05177);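 also: PubChem cytochrome P450 panel assay, CYP1A2 panel member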
T3 sequence (P05177 whole entry): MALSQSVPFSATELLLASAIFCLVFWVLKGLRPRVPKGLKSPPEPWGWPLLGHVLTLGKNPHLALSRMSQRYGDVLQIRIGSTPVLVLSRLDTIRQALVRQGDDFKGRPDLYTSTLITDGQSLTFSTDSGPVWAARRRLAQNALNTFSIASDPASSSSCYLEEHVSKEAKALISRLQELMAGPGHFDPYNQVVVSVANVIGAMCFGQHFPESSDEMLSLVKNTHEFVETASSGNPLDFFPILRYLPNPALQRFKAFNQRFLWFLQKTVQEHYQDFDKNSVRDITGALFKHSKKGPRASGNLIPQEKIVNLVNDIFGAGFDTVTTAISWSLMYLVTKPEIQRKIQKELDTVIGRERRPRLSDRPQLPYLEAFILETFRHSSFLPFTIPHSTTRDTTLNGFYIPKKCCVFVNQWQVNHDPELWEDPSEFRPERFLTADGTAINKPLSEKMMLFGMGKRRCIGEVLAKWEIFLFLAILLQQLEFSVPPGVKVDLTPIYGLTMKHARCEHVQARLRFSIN

[3] = NIH-3T3 fibroblast cytotoxicity, dose response, cytotoxicity control, cell-based, fluorescence, Alamar Blue, secondary assay (AID 2327); format: functional;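 also: NIH-3T3 mouse fibroblasts cultured with fluconazole at 8 µg/mL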
Cytochrome P450 2C9 = Cytochrome P450 2C9 (Homo sapiens, UniProt P11712)
Chain of Cytochrome P450 2C9 (P11712 whole entry): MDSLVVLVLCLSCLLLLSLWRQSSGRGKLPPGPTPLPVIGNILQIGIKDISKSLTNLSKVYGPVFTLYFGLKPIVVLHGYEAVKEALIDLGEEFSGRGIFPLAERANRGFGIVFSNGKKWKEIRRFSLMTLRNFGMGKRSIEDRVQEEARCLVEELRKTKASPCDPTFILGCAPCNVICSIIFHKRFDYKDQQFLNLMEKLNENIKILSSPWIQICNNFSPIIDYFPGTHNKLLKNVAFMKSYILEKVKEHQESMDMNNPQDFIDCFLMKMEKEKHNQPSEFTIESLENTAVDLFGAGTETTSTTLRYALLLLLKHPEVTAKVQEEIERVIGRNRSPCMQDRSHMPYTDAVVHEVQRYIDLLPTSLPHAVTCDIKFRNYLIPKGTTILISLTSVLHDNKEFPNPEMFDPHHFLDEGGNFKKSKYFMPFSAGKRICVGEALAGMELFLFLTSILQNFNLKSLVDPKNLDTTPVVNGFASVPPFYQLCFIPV

[4] = target: T4, Corticotropin-releasing factor receptor 2/Corticotropin-releasing factor-binding protein (Homo sapiens, UniProt P24387+Q13324); assay: activators of CRF receptor 2 with binding protein – uHTS hits, confirmation (AID 602473); format: functional; details: read-out: EC50_Mean
T4 sequence (Q13324 whole entry): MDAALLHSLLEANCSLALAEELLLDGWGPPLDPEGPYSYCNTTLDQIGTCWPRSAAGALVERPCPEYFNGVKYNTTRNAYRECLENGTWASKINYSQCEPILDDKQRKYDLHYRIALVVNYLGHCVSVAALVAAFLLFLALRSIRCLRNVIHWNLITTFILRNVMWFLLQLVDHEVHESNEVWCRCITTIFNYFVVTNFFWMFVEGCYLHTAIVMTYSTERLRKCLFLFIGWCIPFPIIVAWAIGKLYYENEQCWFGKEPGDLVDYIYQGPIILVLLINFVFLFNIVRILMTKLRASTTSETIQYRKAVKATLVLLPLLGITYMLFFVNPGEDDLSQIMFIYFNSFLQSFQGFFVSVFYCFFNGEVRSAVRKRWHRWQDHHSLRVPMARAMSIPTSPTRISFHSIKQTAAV
T4 sequence (P24387 whole entry): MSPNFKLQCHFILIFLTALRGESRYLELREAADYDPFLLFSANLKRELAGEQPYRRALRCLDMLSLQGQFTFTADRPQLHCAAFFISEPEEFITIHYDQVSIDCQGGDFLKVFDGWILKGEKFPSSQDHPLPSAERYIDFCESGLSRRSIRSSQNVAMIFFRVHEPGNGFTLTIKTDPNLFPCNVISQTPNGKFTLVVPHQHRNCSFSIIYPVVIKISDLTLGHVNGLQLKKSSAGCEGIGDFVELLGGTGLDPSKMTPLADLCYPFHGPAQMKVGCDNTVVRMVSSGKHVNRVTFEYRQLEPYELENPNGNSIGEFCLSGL

Kallikrein-7 = Kallikrein-7 (Homo sapiens, UniProt P49862); assay: Fluorescence Intensity-based biochemical primary high throughput dose response assay to identify activators of kallikrein-7 (K7) zymogen.
Chain of Kallikrein-7 (P49862 whole entry): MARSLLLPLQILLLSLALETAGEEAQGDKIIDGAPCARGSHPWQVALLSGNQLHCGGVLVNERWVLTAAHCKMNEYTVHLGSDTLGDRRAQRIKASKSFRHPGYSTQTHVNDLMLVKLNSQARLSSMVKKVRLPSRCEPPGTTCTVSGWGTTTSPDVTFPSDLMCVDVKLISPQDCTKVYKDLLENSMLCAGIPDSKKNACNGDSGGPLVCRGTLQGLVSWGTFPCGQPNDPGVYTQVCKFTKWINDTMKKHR

[5] = test system: Streptococcus sp. 'group A'; assay: Streptococcus pyogenes SK(-)GAS viability under kanamycin – luminescence, BacTiterGlo, confirmation, counter-screen for streptokinase expression inhibitor project, dose response (AID 1900); format: functional, organism-based
Streptokinase A = target: T5, Streptokinase A (Streptococcus pyogenes serotype M1, UniProt P10520); assay: viability-normalized secreted streptokinase activity reduction – plasminogen activation absorbance, OD405, dose response (AID 1914); format: functional, Streptococcus pyogenes M1 GAS;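 also: secreted streptokinase activity via plasminogen activation per viability signal from cell pellet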
T5 sequence (P10520 whole entry): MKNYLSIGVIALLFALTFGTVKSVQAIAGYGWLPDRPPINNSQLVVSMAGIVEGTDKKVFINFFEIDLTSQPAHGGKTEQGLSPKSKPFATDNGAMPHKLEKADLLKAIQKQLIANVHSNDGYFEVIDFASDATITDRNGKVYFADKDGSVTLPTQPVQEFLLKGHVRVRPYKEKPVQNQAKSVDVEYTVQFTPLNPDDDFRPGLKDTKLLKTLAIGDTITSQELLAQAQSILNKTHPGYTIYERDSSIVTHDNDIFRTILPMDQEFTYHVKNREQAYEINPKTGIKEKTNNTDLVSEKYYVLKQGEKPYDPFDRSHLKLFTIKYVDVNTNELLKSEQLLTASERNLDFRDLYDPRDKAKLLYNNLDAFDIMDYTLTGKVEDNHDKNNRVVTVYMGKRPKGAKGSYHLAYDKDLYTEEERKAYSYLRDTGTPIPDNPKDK

Streptococcus = assay: GAS UMAA2166 growth inhibition – luminescence, BacTiterGlo, counter-screen for streptokinase expression inhibitor project, dose response (AID 1915); format: functional, organism-based;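 also: potency for reduction of bacterial viability or growth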
Aminopeptidase N = target: T6, Aminopeptidase N (Plasmodium falciparum FcB1/Columbia, UniProt O96935); assay: malaria alanyl aminopeptidase activity blockers – biochemical, fluorogenic H-Leu-NHMec substrate, 1536-well (AID 1445); set-up: species or system Plasmodium falciparum 3D7, 3D7
T6 sequence (O96935 whole entry): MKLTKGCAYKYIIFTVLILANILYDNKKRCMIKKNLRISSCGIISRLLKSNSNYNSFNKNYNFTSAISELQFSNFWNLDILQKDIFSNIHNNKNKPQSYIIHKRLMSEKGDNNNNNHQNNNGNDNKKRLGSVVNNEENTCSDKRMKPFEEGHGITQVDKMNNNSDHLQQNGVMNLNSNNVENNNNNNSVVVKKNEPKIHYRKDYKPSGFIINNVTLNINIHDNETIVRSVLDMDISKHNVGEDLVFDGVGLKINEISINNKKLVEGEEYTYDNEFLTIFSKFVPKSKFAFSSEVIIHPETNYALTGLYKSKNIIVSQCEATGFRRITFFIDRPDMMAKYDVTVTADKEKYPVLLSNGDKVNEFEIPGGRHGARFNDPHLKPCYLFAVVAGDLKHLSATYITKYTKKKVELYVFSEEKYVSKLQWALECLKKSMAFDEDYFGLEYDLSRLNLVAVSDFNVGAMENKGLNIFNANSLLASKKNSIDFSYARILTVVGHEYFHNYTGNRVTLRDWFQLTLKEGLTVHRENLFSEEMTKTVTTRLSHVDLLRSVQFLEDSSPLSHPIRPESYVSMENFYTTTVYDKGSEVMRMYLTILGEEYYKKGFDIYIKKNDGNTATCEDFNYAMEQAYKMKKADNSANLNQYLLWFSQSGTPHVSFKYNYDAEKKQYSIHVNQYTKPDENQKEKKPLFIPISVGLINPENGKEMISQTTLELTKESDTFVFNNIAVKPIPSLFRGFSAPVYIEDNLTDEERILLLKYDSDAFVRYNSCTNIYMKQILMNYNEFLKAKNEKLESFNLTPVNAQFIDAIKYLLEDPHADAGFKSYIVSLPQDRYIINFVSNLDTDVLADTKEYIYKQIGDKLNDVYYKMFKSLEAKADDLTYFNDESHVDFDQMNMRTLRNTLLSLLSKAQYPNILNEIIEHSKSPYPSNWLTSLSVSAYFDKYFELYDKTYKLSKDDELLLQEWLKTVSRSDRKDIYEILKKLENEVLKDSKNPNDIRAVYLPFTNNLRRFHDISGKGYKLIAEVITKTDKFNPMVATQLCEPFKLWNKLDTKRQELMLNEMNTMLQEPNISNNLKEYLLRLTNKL

Leucine aminopeptidase = target: T7, Leucine aminopeptidase (Plasmodium falciparum 3D7, UniProt Q8IL11); assay: P. falciparum M17LAP inhibitors, primary screen, biochemical, fluorogenic H-Leu-NHMec substrate, 1536-well (AID 1619); format: functional
T7 sequence (Q8IL11 whole entry): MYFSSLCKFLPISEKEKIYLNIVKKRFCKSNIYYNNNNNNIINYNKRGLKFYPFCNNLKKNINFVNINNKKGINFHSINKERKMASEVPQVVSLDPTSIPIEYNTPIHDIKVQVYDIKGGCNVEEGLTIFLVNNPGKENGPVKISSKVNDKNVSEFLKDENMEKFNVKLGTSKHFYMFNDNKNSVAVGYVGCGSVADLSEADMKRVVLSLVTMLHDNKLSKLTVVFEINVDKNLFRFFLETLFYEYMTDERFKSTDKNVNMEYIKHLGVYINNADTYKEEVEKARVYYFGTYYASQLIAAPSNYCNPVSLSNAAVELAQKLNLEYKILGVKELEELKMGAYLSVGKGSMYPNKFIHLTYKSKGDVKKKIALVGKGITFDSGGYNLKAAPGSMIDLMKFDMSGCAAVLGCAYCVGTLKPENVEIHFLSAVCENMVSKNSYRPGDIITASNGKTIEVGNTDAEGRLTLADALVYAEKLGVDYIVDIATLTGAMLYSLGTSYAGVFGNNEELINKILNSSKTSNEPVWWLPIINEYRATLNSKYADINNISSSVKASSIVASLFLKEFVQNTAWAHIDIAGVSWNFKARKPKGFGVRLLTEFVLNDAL

[6] = target: T8, Sentrin-specific protease 8 (Homo sapiens, UniProt Q96LD8); format: functional
T8 sequence (Q96LD8 whole entry): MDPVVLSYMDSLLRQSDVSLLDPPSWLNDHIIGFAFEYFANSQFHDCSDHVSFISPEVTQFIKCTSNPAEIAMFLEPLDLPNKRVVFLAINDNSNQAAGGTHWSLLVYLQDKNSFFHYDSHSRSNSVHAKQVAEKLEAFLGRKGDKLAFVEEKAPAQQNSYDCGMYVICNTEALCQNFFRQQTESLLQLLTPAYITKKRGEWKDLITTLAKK

[7] = Luminescence Cell-Based Dose Retest to Confirm Inhibitors of Cancer Stem Cells. [Related pubchem assays (depositor defined):AID2717, AID2721]; format: functional, Homo sapiens; details: Homo sapiens

SMILES	IC50 [1]	AC50 [2]	further results
C=C(C)C(=O)N1CC2(CC(c3cccc(NC(=O)/C=C\C=C/C)c3)=NO2)C[C@H]1C(N)=O (stereo not given in full)	9.08 µM (active)	–	–
CC(C)(C)NS(=O)(=O)c1ccc(NC(=O)CS(=O)(=O)Cc2ccccc2)cc1	–	> 100 µM (inactive)	–
CC(C)=C1C(=O)NN(c2ccc(F)c(Cl)c2)C1=O	–	> 100 µM (inactive)	AC50 (Cytochrome P450 1A2): 31.6 µM (inconclusive); EC50 [3]: > 160 µM (inactive); AC50 (Cytochrome P450 2C9): 20 µM (inconclusive)
O=C(O)c1cc(Cl)ccc1-c1ccc(/C=C/c2cc(C(F)(F)F)nc(O)n2)o1	–	> 100 µM (inactive)	EC50 [4]: 6.29 µM (active)
NS(=O)(=O)c1ccc(NC(=O)C2Cc3ccccc3CN2C(=O)c2ccco2)cc1 (stereo not given)	6.06 µM (active)	–	–
O=C1N=C(Nc2cccnc2)S/C1=C/c1ccc(F)cc1	18.4 µM (active)	–	–
O=C(NC1CC1)C1CCN(S(=O)(=O)c2cc([N+](=O)[O-])ccc2Cl)CC1	2.49 µM (active)	–	–
O=C(NNS(=O)(=O)c1ccc(F)cc1)c1cc(Cl)ccc1O	–	> 100 µM (inactive)	–
COCCn1c(=S)[nH]c2sc3c(c2c1=O)CCC(C)C3 (stereo not given)	–	53.8 µM (active)	–
Cc1cc(C=O)c(C)n1-c1cccc(C(=O)O)c1	6.32 µM (active)	–	–
CC(C)OCCOc1ccc2oc(-c3ccco3)cc(=O)c2c1	21.7 µM (active)	–	EC50 (Kallikrein-7): > 7.72 µM (active)
CCOC(=O)CC1(C)OCC(C[N+]2(C)CCCCC2)O1 (stereo not given)	5.57 µM (active)	–	–
CC(=O)NS(=O)(=O)c1ccc(/N=c2\ssc3c2-c2ccc(C)cc2NC3(C)C)cc1	–	> 100 µM (inactive)	EC50 [5]: 2.31 µM (active); EC50 (Streptokinase A): > 150 µM (not active); EC50 (Streptococcus): 12.1 µM (active); IC50 (Aminopeptidase N): 89.3 µM (active); IC50 (Leucine aminopeptidase): 2.6 µM (active)
Cc1nc2ccccc2n1/N=C/c1ccc([N+](=O)[O-])o1	–	–	IC50 [6]: 38.4 µM (active); AC50 [7]: 10.9 µM (active)
